Results on two compounds are retold here after publication PMC7228129, “Evaluation of Developmental Toxicity, Developmental Neurotoxicity, and Tissue Dose in Zebrafish Exposed to GenX and Other PFAS” (Environmental Health Perspectives, 2020).

“And” between values parts separate entries of the source, which are not always exact repeats. Identical values can stand only once. “Also recorded” adds a separate entry of the source. Like-named read-outs stand apart in the source and are kept apart here.

This data set in a line: Tissue analysis (internal tissue dose of parent PFAS, bioconcentration factor). Type of data set: in vivo, Danio rerio. As to conditions: for BCFdry: 6-d zebrafish assay; for concentration at 6 dpf: zebrafish (Danio rerio), whole larvae (pools of 10, homogenised), other: waterborne exposure in the well medium, 6 dpf larvae, dry weight 44 μg per larva, read-out: Measured tissue dose; for Dil Corrected Reported Conc. (fMole/larvae), measured tissue concentration: zebrafish larvae, replicate samples per experiment/plate. The method, then: Zebrafish were exposed to 25.1, 44.8, or 80.0μM ADONA, PFOA, PFESA1, or PFHxA, 14.0, 25.1, or 44.8μM PFHxS, or 1.0, 1.8, or 3.1μM PFOS, or 0.4% DMSO. The highest concentration evaluated was the no observed effect concentration (NOEC) determined in Study 1. In Study 2, zebrafish were exposed to 25.1, 44.8, or 80.0μM GenX Free Acid or 0.4% DMSO. According to the previously described microtiter plate inclusion criterion, 15/15 plates were included in the study. Larvae were anesthetized by rapid cooling in chilled 10% HBSS. Groups of 10 anesthetized larvae were pooled to comprise one biological replicate ( n=4 ) in 500μL of 10% HBSS, flash frozen in liquid nitrogen, and stored at −80°C . In the case of ADONA, n=5 .
Tissue samples were prepared by protein precipitation. Flash frozen samples, consisting of pools of ten 6-dpf zebrafish larvae, were homogenized using ∼100mg of 1.0-mm diameter zirconia/silica beads and a Fast-Prep-24™ homogenizer (MP Biomedicals) in 100μL 0.1M formic acid fortified with the surrogate (i.e., PFNA). Protein was precipitated from the homogenate with 400μL of acetonitrile containing internal standards and separated by centrifugation at 14,000 rpm for 15 min at 4°C. Fifty microliters of the extract was diluted with 200μL aqueous 0.4 mM ammonium formate in the LC vial for analysis. Standards and samples were analyzed with Vanquish UPLC and Orbitrap Fusion mass spectrometer (Thermo Electron) operated in negative ESI mode. ESI source conditions were optimized for the [M-H]^− ion of PFAS as follows: spray voltage −3.5 kV , sheath gas 25 au (arbitrary units), aux gas 6 au, sweep gas 0 au, ion transfer tube temperature 300°C, and vaporizer temperature […]. High-resolution accurate mass (HRAM) MS1 scans were collected with the following parameters: detector type orbitrap, orbitrap resolution 30,000 full width at half maximum (FWHM), normal mass range, Use quadrapole isolation=true , scan range 70–700m/z , radio frequency (RF) lens 60%, automatic gain control (AGC) target 4.00×10^5 , max injection time of 50 ms , 1 microscan, data type set to profile, negative polarity, and source fragmentation disabled. Data-dependent orbitrap MSMS (ddMS2-OT) scans were collected for the [M-H]^− ion [ M-H-CO2 for GenX]^– using a target mass list for the eight PFAS and PFNA surrogate for identity confirmation. The apex detection was set to an expected peak width of 2 s at FWHM and desired apex peak window of 30%. The dynamic exclusion parameters were set to exclude after a one-time, 60-s exclusion duration, low and high mass tolerances of 10 ppm , and exclude isotope was set to true. The intensity threshold for collecting an MSMS scan was set to 2.5E+04 . Fragmentation was done by high-energy collisional dissociation (HCD). The ddMS2-OT scans were collected with the following parameters: orbitrap isolation mode, isolation window of 1.6m/z , isolation offset off, stepped HCD collision energy of 30%±10% , scan range of auto mass-to-charge ratio normal, orbitrap resolution of 30,000 FWHM, first mass 75m/z , max injection time of […], AGC target 5.00×10^4 , inject ions from available parallelizable time set to true, max injection time of 54 ms, 1 microscan, and data type set to centroid. UPLC separation was achieved using ACQUITY UPLC BEH C18 Column, 130Å , 1.7μM , 2.1mm×50mm (Waters Corp P/N 186,002,350) at 50°C with gradient elution at a flow rate of 300μL/min using 0.4 mM ammonium formate in acetonitrile and water with a 10-μL injection. Data collection, integration, calibration, and quantitation were performed using Xcalibur software (version 4.1; Thermo Electron). Concentration for each PFAS analyte was determined by internal standard technique using isotopically labeled internal standards and matrix-matched calibration standards. Quantitative analysis was performed using high-resolution MS1-extracted ion chromatograms. […]

`O=C(O)C(F)(OC(F)(F)C(F)(F)C(F)(F)F)C(F)(F)F` (stereo not drawn) [GenX Free Acid, Perfluoro-2-propoxypropanoic acid]: the “Parent compound in larval zebrafish tissue” value (GenX Free Acid diluted in DI water (Study 2)) is listed as “detectable levels; also recorded: detectable in zebrafish tissue”. For the same compound, where the note is “GenX Free Acid diluted in DMSO (Study 1)”, the “Parent compound in zebrafish tissue at 6 dpf” value is reported as “undetectable”. For the same compound, the BCFdry was found to be 0.45 L/kg (nominal 25.1 μM in DI water (Study 2)), 0.29 L/kg (nominal 44.8 μM in DI water (Study 2)) and 0.49 L/kg (nominal 80.0 μM in DI water (Study 2)). Moreover, the concentration at 6 dpf runs as follows: (nominal 25.1 μM in DI water (Study 2) daily 0–5 dpf) 2480 ± 660 ng/g; (nominal 44.8 μM in DI water (Study 2) daily 0–5 dpf) 2020 ± 270 ng/g; (nominal 80.0 μM in DI water (Study 2) daily 0–5 dpf) 5110 ± 1490 ng/g.
As for `O=C(O)C(F)(F)C(F)(F)C(F)(F)C(F)(F)C(F)(F)F` [PFHxA, Perfluorohexanoic acid], the “Bioaccumulation ranking” value (among chemicals assessed, from BCF values) is recorded as “least bioaccumulative”. Further, the BCFdry reads like this: (nominal 25.1 μM, 0.4% DMSO) 0.46 L/kg; (nominal 44.8 μM, 0.4% DMSO) 0.18 L/kg; (nominal 80.0 μM, 0.4% DMSO) 0.24 L/kg. Besides, the concentration at 6 dpf is 4970 ± 4400 ng/g (nominal 25.1 μM daily 0–5 dpf, 0.4% DMSO); 3280 ± 560 ng/g (nominal 44.8 μM daily 0–5 dpf, 0.4% DMSO); 8770 ± 4310 ng/g (nominal 80.0 μM daily 0–5 dpf, 0.4% DMSO). The “Dil Corrected Reported Conc. (fMole/larvae), measured tissue concentration” value (exposure Concentration 25.1 µM) is 643.192 fMole/larvae and 1721.28 fMole/larvae and 198.739 fMole/larvae and 224.57 fMole/larvae; the “Dil Corrected Reported Conc. (fMole/larvae), measured tissue concentration” value (exposure Concentration 44.8 µM) is 344.178 fMole/larvae and 504.145 fMole/larvae and 437.515 fMole/larvae and 553.638 fMole/larvae; the “Dil Corrected Reported Conc. (fMole/larvae), measured tissue concentration” value (exposure Concentration 80 µM) is 1323.26 fMole/larvae and 776.14 fMole/larvae and 638.759 fMole/larvae and 2174.95 fMole/larvae.
